In patent US10670605B2, “Cysteine reactive probes and uses thereof” (The Scripps Research Institute, priority 2015, dated 2020):
Values belong to the compound of their own block, whether it stands above or below them.

Columns and labels:
Test in all cases: Competitive isoTOP-ABPP, cell lysates
Format in all cases: binding
[1] = target: EP300 C1738 (Q09472) (Homo sapiens, UniProt Q09472); settings: for isoTOP-ABPP reactivity profile ratio, Q09472_C1738: 500 μm, in-vitro_ramos_231
[2] = target: T1, RELB C109 (Q01201) (Homo sapiens, UniProt Q01201); settings: for R value (DMSO/fragment): 500 μM
T1 sequence (Q01201 1-579): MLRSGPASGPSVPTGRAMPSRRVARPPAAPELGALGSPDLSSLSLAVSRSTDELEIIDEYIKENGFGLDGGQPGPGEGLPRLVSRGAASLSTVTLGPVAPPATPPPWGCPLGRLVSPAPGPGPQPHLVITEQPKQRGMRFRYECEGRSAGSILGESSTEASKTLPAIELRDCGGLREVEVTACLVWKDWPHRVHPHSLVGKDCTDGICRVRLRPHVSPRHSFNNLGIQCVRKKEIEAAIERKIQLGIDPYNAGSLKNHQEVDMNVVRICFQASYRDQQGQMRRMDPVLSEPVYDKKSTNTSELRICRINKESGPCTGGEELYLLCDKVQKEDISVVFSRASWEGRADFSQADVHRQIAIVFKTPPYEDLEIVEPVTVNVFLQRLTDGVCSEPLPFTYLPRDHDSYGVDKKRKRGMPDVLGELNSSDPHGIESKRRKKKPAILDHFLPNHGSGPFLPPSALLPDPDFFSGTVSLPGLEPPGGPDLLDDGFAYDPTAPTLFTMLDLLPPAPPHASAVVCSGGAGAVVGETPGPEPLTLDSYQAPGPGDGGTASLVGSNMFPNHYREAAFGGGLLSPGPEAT

[3] = target: T2, VCPIP1 C219 (Q96JH7) (Homo sapiens, UniProt Q96JH7); settings: for R value (DMSO/fragment): 500 μM; for isoTOP-ABPP reactivity profile ratio, Q96JH7_C219 / isoTOP-ABPP reactivity ratio, Q96JH7_C219: 500 μm, in-vitro_ramos
T2 sequence (Q96JH7 1-1222): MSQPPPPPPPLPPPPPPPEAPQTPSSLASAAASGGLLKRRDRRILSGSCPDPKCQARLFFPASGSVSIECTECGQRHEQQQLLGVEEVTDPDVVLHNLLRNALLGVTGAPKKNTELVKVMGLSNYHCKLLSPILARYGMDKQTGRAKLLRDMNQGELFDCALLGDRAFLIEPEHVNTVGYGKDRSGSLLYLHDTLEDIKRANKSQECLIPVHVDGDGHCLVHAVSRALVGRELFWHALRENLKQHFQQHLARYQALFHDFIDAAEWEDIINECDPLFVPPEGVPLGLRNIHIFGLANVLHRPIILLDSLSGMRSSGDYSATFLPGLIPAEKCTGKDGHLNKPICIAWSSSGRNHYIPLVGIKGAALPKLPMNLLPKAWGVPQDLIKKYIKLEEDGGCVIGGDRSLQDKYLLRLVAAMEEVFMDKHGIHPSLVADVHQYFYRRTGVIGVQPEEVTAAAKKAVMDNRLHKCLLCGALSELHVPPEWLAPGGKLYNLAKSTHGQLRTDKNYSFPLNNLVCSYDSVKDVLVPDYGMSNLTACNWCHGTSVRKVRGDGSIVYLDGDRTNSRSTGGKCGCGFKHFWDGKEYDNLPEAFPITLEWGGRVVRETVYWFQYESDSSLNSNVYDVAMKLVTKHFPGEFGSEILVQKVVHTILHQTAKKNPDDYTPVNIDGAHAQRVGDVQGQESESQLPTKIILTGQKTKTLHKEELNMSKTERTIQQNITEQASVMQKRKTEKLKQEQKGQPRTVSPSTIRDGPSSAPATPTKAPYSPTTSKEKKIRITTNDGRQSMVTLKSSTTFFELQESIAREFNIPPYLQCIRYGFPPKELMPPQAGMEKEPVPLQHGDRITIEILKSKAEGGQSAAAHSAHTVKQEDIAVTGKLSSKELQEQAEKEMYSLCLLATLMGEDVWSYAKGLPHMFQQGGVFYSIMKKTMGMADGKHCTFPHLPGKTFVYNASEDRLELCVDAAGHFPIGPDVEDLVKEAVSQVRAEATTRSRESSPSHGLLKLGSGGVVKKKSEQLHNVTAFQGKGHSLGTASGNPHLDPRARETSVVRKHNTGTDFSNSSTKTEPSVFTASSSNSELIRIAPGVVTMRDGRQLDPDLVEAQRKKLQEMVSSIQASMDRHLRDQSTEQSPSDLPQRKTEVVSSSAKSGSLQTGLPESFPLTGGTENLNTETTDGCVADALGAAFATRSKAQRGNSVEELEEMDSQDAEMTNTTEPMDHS

Chain of EP300 C1738 (Q09472) (Q09472 whole entry, the tested form may be a part): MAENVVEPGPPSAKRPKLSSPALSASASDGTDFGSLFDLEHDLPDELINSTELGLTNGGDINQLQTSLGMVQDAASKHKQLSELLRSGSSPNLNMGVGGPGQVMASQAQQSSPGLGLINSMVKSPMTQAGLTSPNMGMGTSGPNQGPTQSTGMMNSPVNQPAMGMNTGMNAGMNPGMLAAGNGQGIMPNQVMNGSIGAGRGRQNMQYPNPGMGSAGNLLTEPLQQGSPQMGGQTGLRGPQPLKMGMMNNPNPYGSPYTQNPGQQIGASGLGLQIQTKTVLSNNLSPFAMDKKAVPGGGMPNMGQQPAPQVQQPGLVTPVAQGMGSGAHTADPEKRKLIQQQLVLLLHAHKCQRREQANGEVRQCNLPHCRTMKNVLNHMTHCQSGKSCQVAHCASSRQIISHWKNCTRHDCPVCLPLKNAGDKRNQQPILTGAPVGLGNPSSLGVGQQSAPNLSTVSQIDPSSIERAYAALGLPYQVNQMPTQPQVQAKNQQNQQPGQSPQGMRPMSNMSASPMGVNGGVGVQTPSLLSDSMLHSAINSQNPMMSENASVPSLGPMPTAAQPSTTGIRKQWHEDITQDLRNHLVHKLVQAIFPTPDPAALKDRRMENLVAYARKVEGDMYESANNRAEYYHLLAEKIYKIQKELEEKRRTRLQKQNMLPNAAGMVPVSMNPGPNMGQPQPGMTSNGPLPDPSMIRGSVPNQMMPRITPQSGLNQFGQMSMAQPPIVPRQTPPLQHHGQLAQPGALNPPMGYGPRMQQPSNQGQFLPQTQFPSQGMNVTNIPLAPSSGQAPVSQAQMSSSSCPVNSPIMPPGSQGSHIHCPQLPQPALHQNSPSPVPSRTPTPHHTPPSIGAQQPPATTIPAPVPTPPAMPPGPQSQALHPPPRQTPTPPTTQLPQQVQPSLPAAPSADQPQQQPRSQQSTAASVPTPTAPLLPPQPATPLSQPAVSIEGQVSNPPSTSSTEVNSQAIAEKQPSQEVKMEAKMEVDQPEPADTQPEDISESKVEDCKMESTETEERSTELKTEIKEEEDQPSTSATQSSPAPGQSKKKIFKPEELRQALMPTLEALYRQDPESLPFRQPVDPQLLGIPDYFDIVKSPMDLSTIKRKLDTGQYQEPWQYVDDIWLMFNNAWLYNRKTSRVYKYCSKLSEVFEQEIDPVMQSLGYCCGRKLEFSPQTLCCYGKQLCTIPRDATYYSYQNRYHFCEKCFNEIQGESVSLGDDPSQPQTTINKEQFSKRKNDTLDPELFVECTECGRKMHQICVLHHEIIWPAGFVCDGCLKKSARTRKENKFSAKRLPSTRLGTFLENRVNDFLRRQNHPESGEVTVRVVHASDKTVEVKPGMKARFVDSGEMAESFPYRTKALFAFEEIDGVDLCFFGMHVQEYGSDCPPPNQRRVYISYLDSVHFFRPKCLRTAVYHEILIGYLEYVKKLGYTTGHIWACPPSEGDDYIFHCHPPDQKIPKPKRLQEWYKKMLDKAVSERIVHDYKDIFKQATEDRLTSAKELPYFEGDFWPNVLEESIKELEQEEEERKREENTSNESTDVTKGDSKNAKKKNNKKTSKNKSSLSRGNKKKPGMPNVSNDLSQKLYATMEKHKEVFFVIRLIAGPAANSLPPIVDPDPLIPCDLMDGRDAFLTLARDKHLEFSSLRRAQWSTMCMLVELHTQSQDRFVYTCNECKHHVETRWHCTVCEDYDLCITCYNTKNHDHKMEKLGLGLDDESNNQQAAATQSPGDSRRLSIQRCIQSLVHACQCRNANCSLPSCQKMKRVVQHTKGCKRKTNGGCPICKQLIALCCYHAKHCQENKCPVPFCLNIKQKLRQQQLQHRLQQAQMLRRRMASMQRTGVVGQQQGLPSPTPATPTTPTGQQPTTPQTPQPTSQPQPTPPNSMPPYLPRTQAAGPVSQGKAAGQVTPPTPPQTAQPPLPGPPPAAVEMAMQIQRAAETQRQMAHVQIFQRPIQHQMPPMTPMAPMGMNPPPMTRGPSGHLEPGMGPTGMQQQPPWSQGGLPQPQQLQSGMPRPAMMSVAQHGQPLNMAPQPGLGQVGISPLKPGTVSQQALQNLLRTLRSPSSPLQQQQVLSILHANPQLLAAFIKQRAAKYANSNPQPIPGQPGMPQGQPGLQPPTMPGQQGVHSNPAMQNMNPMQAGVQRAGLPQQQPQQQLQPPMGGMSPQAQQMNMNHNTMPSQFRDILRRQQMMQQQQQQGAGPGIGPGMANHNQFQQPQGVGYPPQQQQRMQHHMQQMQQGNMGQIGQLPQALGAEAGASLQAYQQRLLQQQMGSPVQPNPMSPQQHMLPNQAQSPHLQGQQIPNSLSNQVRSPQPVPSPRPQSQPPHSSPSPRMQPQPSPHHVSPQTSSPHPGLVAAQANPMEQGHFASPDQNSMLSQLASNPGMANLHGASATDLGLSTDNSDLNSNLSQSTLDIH

R value (DMSO/fragment) ([1]; 500 μM, invitro, ramos): 12.7
R value (DMSO/fragment) ([2]; in vitro, MDA-MB-231): 20.0
R value (DMSO/fragment) ([2]; invitro, ramos): 20.0
R value (DMSO/fragment) ([3]; invitro, ramos): 1.1
Compound: COc1ccc2c(c1)CCCN2C(=O)CCl [compound 2]

isoTOP-ABPP ratio, Q09472_C1738 ([1]; 500 μM, invitro, ramos): 20.0
Compound: C=CC(=O)N(c1ccccc1)c1ccc(Br)cc1 [compound 5]

isoTOP-ABPP ratio (reactivity profile), Q09472_C1738 ([1]; 500 μm in-vitro ramos_231): 1.0
isoTOP-ABPP ratio (reactivity profile), Q01201_C109 ([2]; 500 μm in-vitro ramos_231): 0.8
isoTOP-ABPP ratio (reactivity profile), Q96JH7_C219 ([3]; 500 μm in-vitro ramos_231): 1.7
Compound: CC(C)CCOCCNC(=O)CCl [compound 27]

R value (DMSO/fragment) ([3]; in vitro, MDA-MB-231): 20.0
R value (DMSO/fragment) ([3]; invitro, ramos): 15.1
Compound: O=C(CCl)Nc1cc(C(F)(F)F)cc(C(F)(F)F)c1 [compound 3]

isoTOP-ABPP reactivity ratio, Q01201_C109 ([2]; 500 μm, in-vitro_ramos): 20.0
Compound: CC(C)(C)c1cc(NC(=O)CCl)on1 [compound 32]

isoTOP-ABPP reactivity profile ratio, Q09472_C1738 [1]: 1.1
isoTOP-ABPP reactivity profile ratio, Q96JH7_C219 [3]: 1.6
Compound: O=C(CCl)Nc1ccc(-c2ccccc2)cc1 [compound 52]

isoTOP-ABPP ratio (reactivity profile), Q01201_C109 ([2]; 500 μm in-vitro ramos): 1.1
Compound: COc1ccccc1OCCNC(=O)CCl [compound 28]

Compound: O=C(CCl)N1CCC(C(O)(c2ccccc2)c2ccccc2)CC1 [compound 20]
isoTOP-ABPP ratio (reactivity profile), Q09472_C1738 ([1]; 500 μm in-vitro ramos): 3.2
isoTOP-ABPP ratio (reactivity profile), Q96JH7_C219 ([3]; 500 μm in-vitro ramos): 1.2

isoTOP-ABPP ratio (reactivity profile), Q01201_C109 ([2]; 500 μm in-vitro ramos): 1.3
Compound: N#C/C(=C\c1cc(C(F)(F)F)cc(C(F)(F)F)c1)C(N)=O [compound 23]

isoTOP-ABPP reactivity profile ratio, Q01201_C109 ([2]; 500 μm, in-vitro_ramos): 1.6
isoTOP-ABPP reactivity profile ratio, Q96JH7_C219 [3]: 2.3
Compound: O=C(CCl)Nc1cccc2ncccc12 [compound 51]

isoTOP-ABPP reactivity ratio, Q96JH7_C219 [3]: 1.8
Compound: C=CC(=O)Nc1cc(F)c(N2CCN(C(=O)OC(C)(C)C)CC2)c(F)c1 [compound 38]

isoTOP-ABPP ratio (reactivity profile), Q96JH7_C219 ([3]; 500 μm in-vitro ramos): 1.3
Compound: C=CC(=O)N(Cc1cccnc1)c1ccc(Oc2ccccc2)c(C(F)(F)F)c1 [compound 15]

isoTOP-ABPP reactivity profile ratio, Q09472_C1738 [1]: 2.2
Compound: COc1cc(NC(=O)CCl)cc(OC)c1 [compound 43]

isoTOP-ABPP ratio (reactivity profile), Q01201_C109 ([2]; 500 μm in-vitro ramos): 1.5
isoTOP-ABPP ratio (reactivity profile), Q96JH7_C219 ([3]; 500 μm in-vitro ramos): 1.2
Compound: CC(Br)C(=O)Nc1cc(C(F)(F)F)cc(C(F)(F)F)c1 (centres unmarked) [compound 24]

isoTOP-ABPP reactivity ratio, Q96JH7_C219 [3]: 1.0
Compound: C=CC(=O)N(Cc1cccnc1)c1cc(C(F)(F)F)cc(C(F)(F)F)c1 [compound 31]

isoTOP-ABPP ratio (reactivity profile), Q09472_C1738 ([1]; 500 μm in-vitro ramos_231): 1.6
Compound: CC(Cl)C(=O)Nc1cc(C(F)(F)F)cc(C(F)(F)F)c1 (centres unmarked) [compound 25]

isoTOP-ABPP ratio, Q09472_C1738 ([1]; 500 μM, invitro, ramos): 0.7
Compound: O=C(CCl)NCCc1c[nH]c2ccccc12 [compound 13]

isoTOP-ABPP ratio (reactivity profile), Q09472_C1738 ([1]; 500 μm in-vitro ramos_231): 1.3
Compound: O=C(CCl)N1CCN(CC(=O)N2CCOCC2)CC1 [compound 29]

isoTOP-ABPP reactivity ratio, Q96JH7_C219 [3]: 1.9
Compound: C=CC(=O)Nc1cc(C)c(Br)cc1C [compound 40]
